Laboratory results published in US7579356B2, “Thia-tetraazaacenaphthylene kinase inhibitors” (Janssen Pharmaceutica NV, priority 2005, dated 2009).

How the values were obtained:
HER-2 = target: T1, HER-2 (Homo sapiens, UniProt P04626); assay: HER-2 Kinase Assay; assay type: biochemical; conditions: value in parentheses
T1 construct: His6 with thrombin site (N); purchased Proqinase (Freiburg, Germany)
Summary of the method: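 GST/HIS6-tagged HER-2 aa 679–1255 kinase with biotinylated polyGluTyr (1.5 ng/μL), 1 μM ATP plus γ-33P-ATP, Mg2+/Mn2+, DTT, Hepes pH 7.5; 1 h at 30 °C. Substrate phosphorylation captured on streptavidin scintillation plates after EDTA/PBS washes; values are % inhibition at 1 μM or IC50.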

EGFR = target: T2, EGFR (Homo sapiens, UniProt P00533); assay: EGFR Kinase Assay; assay type: biochemical; conditions: for IC50: GST-EGFR, ATP 5 μM; for inhibition at 2 µM: test concentration of 2 μM, compounds without an IC50, read-out: EGFR inhibition in percent
T2 construct: The intracellular portion of EGFR started at nucleotide 2189 (corresponding to amino acid 667) and ended at the termination codon; made in house; host or cells: Sf9 insect cells (baculovirus)
Summary of the method: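 GST-fused human EGFR intracellular domain (from aa 667), Sf9-expressed, phosphorylated biotinylated polyGluTyr with 5 μM ATP plus γ-33P ATP in Tris pH 8.0, MgCl2, vanadate, 1 mM DTT, 1 h at 30 °C. Streptavidin Flashplate scintillation read; triplicate 16-point half-log series from 200 uM; IC50 from % inhibition vs log concentration, else % inhibition at 2 μM.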

T2 sequence (P00533 669-1210 limits assumed): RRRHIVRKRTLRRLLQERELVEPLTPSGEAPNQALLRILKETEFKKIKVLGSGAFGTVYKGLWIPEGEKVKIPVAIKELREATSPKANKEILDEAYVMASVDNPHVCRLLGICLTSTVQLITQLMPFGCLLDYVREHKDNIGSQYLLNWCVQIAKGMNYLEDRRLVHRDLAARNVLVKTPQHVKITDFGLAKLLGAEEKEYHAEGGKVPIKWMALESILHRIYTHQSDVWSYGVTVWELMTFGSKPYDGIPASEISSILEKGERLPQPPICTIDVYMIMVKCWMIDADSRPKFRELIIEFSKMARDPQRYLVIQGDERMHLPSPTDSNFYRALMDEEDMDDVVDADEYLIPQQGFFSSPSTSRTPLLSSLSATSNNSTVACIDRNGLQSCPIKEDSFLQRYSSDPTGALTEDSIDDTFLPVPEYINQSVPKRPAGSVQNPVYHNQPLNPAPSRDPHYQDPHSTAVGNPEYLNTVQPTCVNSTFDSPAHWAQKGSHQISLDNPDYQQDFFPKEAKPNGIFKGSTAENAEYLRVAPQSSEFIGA
T1 sequence (P04626 679-1255): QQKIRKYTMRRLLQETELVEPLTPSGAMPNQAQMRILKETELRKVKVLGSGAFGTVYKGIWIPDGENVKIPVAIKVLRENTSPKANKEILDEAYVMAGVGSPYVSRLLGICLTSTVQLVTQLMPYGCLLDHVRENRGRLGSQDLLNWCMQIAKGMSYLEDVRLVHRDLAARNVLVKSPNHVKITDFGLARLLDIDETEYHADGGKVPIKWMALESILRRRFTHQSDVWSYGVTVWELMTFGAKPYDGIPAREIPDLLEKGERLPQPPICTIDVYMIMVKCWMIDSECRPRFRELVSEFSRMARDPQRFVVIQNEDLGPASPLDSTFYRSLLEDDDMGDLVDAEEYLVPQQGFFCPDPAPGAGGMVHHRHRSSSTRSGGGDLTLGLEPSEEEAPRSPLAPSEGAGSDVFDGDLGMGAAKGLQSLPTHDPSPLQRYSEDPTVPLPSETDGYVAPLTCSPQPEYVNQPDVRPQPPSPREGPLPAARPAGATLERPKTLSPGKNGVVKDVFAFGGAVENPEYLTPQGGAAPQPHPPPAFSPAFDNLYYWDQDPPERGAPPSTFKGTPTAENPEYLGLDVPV

SMILES | IC50 (HER-2) [nM] | IC50 (EGFR) [nM] | inhibition at 2 µM (EGFR) [%]
CN1CCN(NC(=O)c2sc3ncnc4c3c2NC(=O)N4c2ccc(Oc3ccccc3)cc2)CC1 [Cpd 215, 4-oxo-5-(4-phenoxy-phenyl)-4,5-dihydro-3H-1-thia-3,5,6,8-tetraaza-acenaphthylene-2-carboxylic acid (4-methyl-piperazin-1-yl)-amide] | 4460 | 121 | 
CN1CCN(C(=O)c2sc3ncnc4c3c2NC(=O)N4c2ccc(Oc3ccccc3)cc2)CC1 [Cpd 216, 2-(4-methyl-piperazine-1-carbonyl)-5-(4-phenoxy-phenyl)-3H,5H-1-thia-3,5,6,8-tetraaza-acenaphthylen-4-one] | ~100000 | 780 | 
O=C(NCCc1ccccn1)c1sc2ncnc3c2c1NC(=O)N3c1ccc(Oc2ccccc2)cc1 [Cpd 217, 4-oxo-5-(4-phenoxy-phenyl)-4,5-dihydro-3H-1-thia-3,5,6,8-tetraaza-acenaphthylene-2-carboxylic acid (2-pyridin-2-yl-ethyl)-amide] | > 100000 | 225 | 
CN1CCN(Cc2ccc(NC(=O)c3sc4ncnc5c4c3NC(=O)N5c3ccc(Sc4ccccc4)cc3)cc2)CC1 [Cpd 218, 4-oxo-5-(4-phenylsulfanyl-phenyl)-4,5-dihydro-3H-1-thia-3,5,6,8-tetraaza-acenaphthylene-2-carboxylic acid [4-(4-methyl-piperazin-1-ylmethyl)-phenyl]-amide] | 73 | 14 | 
COc1cc(NC(=O)c2sc3ncnc4c3c2NC(=O)N4c2ccc(Sc3ccccc3)cc2)ccc1CN1CCOCC1 [Cpd 219, 4-oxo-5-(4-phenylsulfanyl-phenyl)-4,5-dihydro-3H-1-thia-3,5,6,8-tetraaza-acenaphthylene-2-carboxylic acid (3-methoxy-4-morpholin-4-ylmethyl-phenyl)-amide] | 58 | 127 | 
O=C(Nc1cccc(CN2CCOCC2)c1)c1sc2ncnc3c2c1NC(=O)N3c1ccc(Oc2ccccc2)cc1 [Cpd 220, 4-oxo-5-(4-phenoxy-phenyl)-4,5-dihydro-3H-1-thia-3,5,6,8-tetraaza-acenaphthylene-2-carboxylic acid (3-morpholin-4-ylmethyl-phenyl)-amide] | 355 | 141 | 
O=C(Nc1ccc(CN2CCOCC2)c(Cl)c1)c1sc2ncnc3c2c1NC(=O)N3c1ccc(Oc2ccccc2)cc1 [Cpd 221, 4-oxo-5-(4-phenoxy-phenyl)-4,5-dihydro-3H-1-thia-3,5,6,8-tetraaza-acenaphthylene-2-carboxylic acid (3-chloro-4-morpholin-4-ylmethyl-phenyl)-amide] | 111 | 85 | 
CCOC(=O)c1sc2ncnc3c2c1NC(=O)N3c1ccc(OCc2ccco2)c(Cl)c1 [Cpd 222, 5-[3-chloro-4-(furan-2-ylmethoxy)-phenyl]-4-oxo-4,5-dihydro-3H-1-thia-3,5,6,8-tetraaza-acenaphthylene-2-carboxylic acid ethyl ester] | > 100000 |  | 4
CCOC(=O)c1sc2ncnc3c2c1NC(=O)N3c1ccc(OCc2cccs2)c(Cl)c1 [Cpd 223, 5-[3-chloro-4-(thiophen-2-ylmethoxy)-phenyl]-4-oxo-4,5-dihydro-3H-1-thia-3,5,6,8-tetraaza-acenaphthylene-2-carboxylic acid ethyl ester] | > 100000 |  | 5
COc1cc(NC(=O)c2sc3ncnc4c3c2NC(=O)N4c2ccc(Sc3ccccc3)cc2)ccc1CN1CCCCC1 [Cpd 224, 4-oxo-5-(4-phenylsulfanyl-phenyl)-4,5-dihydro-3H-1-thia-3,5,6,8-tetraaza-acenaphthylene-2-carboxylic acid (3-methoxy-4-piperidin-1-ylmethyl-phenyl)-amide] | 27 | 14 | 
O=C(Nc1ccc(CN2CCOCC2)cc1)c1sc2ncnc3c2c1NC(=O)N3c1ccc(OCc2cccs2)c(Cl)c1 [Cpd 226, 5-[3-chloro-4-(thiophen-2-ylmethoxy)-phenyl]-4-oxo-4,5-dihydro-3H-1-thia-3,5,6,8-tetraaza-acenaphthylene-2-carboxylic acid (4-morpholin-4-ylmethyl-phenyl)-amide] | 27 | 33 | 
O=C(Nc1ccc(CN2CCCCC2)cc1)c1sc2ncnc3c2c1NC(=O)N3c1ccc(OCc2cccs2)c(Cl)c1 [Cpd 227, 5-[3-chloro-4-(thiophen-2-ylmethoxy)-phenyl]-4-oxo-4,5-dihydro-3H-1-thia-3,5,6,8-tetraaza-acenaphthylene-2-carboxylic acid (4-piperidin-1-ylmethyl-phenyl)-amide] | 33 | 19 | 
COc1cc(NC(=O)c2sc3ncnc4c3c2NC(=O)N4c2ccc(OCc3cccs3)c(Cl)c2)ccc1CN1CCCCC1 [Cpd 228, 5-[3-chloro-4-(thiophen-2-ylmethoxy)-phenyl]-4-oxo-4,5-dihydro-3H-1-thia-3,5,6,8-tetraaza-acenaphthylene-2-carboxylic acid (3-methoxy-4-piperidin-1-ylmethyl-phenyl)-amide] | 33 | 17 | 
COc1cc(NC(=O)c2sc3ncnc4c3c2NC(=O)N4c2ccc(OCc3cccs3)c(Cl)c2)ccc1CN1CCOCC1 [Cpd 229, 5-[3-chloro-4-(thiophen-2-ylmethoxy)-phenyl]-4-oxo-4,5-dihydro-3H-1-thia-3,5,6,8-tetraaza-acenaphthylene-2-carboxylic acid (3-methoxy-4-morpholin-4-ylmethyl-phenyl)-amide] | 17 | 33 | 
CN1CCC(NC(=O)c2sc3ncnc4c3c2NC(=O)N4c2ccc(OCc3cccs3)c(Cl)c2)CC1 [Cpd 230, 5-[3-chloro-4-(thiophen-2-ylmethoxy)-phenyl]-4-oxo-4,5-dihydro-3H-1-thia-3,5,6,8-tetraaza-acenaphthylene-2-carboxylic acid (1-methyl-piperidin-4-yl)-amide] | 367 | 109 | 
O=C(Nc1ccc(CN2CCOCC2)c(C(F)(F)F)c1)c1sc2ncnc3c2c1NC(=O)N3c1ccc(Oc2ccccc2)cc1 [Cpd 231, 4-oxo-5-(4-phenoxy-phenyl)-4,5-dihydro-3H-1-thia-3,5,6,8-tetraaza-acenaphthylene-2-carboxylic acid (4-morpholin-4-ylmethyl-3-trifluoromethyl-phenyl)-amide] | 1050 | 314 | 
COc1cc(NC(=O)c2sc3ncnc4c3c2NC(=O)N4c2ccc(Oc3cccnc3)cc2)ccc1CN1CCOCC1 [Cpd 236, 4-oxo-5-[4-(pyridin-3-yloxy)-phenyl]-4,5-dihydro-3H-1-thia-3,5,6,8-tetraaza-acenaphthylene-2-carboxylic acid (3-methoxy-4-morpholin-4-ylmethyl-phenyl)-amide] | 454 | 108 | 
O=C(Nc1ccc(CN2CCOCC2)cc1)c1sc2ncnc3c2c1NC(=O)N3c1ccc(Oc2cccnc2)cc1 [Cpd 237, 4-oxo-5-[4-(pyridin-3-yloxy)-phenyl]-4,5-dihydro-3H-1-thia-3,5,6,8-tetraaza-acenaphthylene-2-carboxylic acid (4-morpholin-4-ylmethyl-phenyl)-amide] | 454 | 90 | 
O=C(Nc1ccc(CN2CCCCC2)cc1)c1sc2ncnc3c2c1NC(=O)N3c1ccc(Oc2cccnc2)cc1 [Cpd 238, 4-oxo-5-[4-(pyridin-3-yloxy)-phenyl]-4,5-dihydro-3H-1-thia-3,5,6,8-tetraaza-acenaphthylene-2-carboxylic acid (4-piperidin-1-ylmethyl-phenyl)-amide] | 1050 | 132 | 
O=C(Nc1ccc(CN2CCOCC2)c(OC(F)(F)F)c1)c1sc2ncnc3c2c1NC(=O)N3c1ccc(Oc2ccccc2)cc1 [Cpd 239, 4-oxo-5-(4-phenoxy-phenyl)-4,5-dihydro-3H-1-thia-3,5,6,8-tetraaza-acenaphthylene-2-carboxylic acid (4-morpholin-4-ylmethyl-3-trifluoromethoxy-phenyl)-amide] | 414 | 114 | 
CCOC(=O)c1sc2ncnc3c2c1NC(=O)N3c1ccc(NC(=O)c2ccccc2)cc1 [Cpd 241, 5-(4-benzoylamino-phenyl)-4-oxo-4,5-dihydro-3H-1-thia-3,5,6,8-tetraaza-acenaphthylene-2-carboxylic acid ethyl ester] | > 100000 |  | -2
COc1cc(NC(=O)c2sc3ncnc4c3c2NC(=O)N4c2ccc(Oc3ccccc3)cc2)ccc1CN1CCCCC1 [Cpd 242, 4-oxo-5-(4-phenoxy-phenyl)-4,5-dihydro-3H-1-thia-3,5,6,8-tetraaza-acenaphthylene-2-carboxylic acid (3-methoxy-4-piperidin-1-ylmethyl-phenyl)-amide] | 42 | 22 | 
COc1cc(NC(=O)c2sc3ncnc4c3c2NC(=O)N4c2ccc(OCc3ccco3)c(Cl)c2)ccc1CN1CCCCC1 [Cpd 243, 5-[3-chloro-4-(furan-2-ylmethoxy)-phenyl]-4-oxo-4,5-dihydro-3H-1-thia-3,5,6,8-tetraaza-acenaphthylene-2-carboxylic acid (3-methoxy-4-piperidin-1-ylmethyl-phenyl)-amide] | 83 | 16 | 
O=C(Nc1ccc(CN2CCCCC2)cc1)c1sc2ncnc3c2c1NC(=O)N3c1ccc(OCc2ccco2)c(Cl)c1 [Cpd 244, 5-[3-chloro-4-(furan-2-ylmethoxy)-phenyl]-4-oxo-4,5-dihydro-3H-1-thia-3,5,6,8-tetraaza-acenaphthylene-2-carboxylic acid (4-piperidin-1-ylmethyl-phenyl)-amide] | 85 | 23 | 
